# Source: US9133194B2, “Cyclic tripeptide mimetics as plasmin inhibitors” (priority 2011, dated 2015)
# Like-named read-outs stand apart in the source and are kept apart here.
# How the values were obtained:
# Factor Xa (human) = Factor Xa (human) (Homo sapiens, UniProt P00742); assay: Enzyme-kinetic determination of inhibition constants, factor Xa (Pefachrome FXa); type: biochemical; conditions: Tris-HCl buffer pH 8.0, Dixon, mean of at least two determinations
# Description: (§1) The Ki values are the mean value of at least two determinations.
# plasma kallikrein = plasma kallikrein (Homo sapiens, UniProt P03952); assay: Enzyme-kinetic determination of inhibition constants, plasma kallikrein (Haemochrom PK); type: biochemical; conditions: Tris-HCl buffer pH 8.0, Dixon, mean of at least two determinations
# Description: as §1
# plasmin = plasmin (Homo sapiens, UniProt P00747); assay: Enzyme-kinetic determination of inhibition constants, plasmin (Chromozym PL); type: biochemical
# Description: as §1
# Thrombin (bovine) = Thrombin (bovine) (Bos taurus, UniProt P00735); assay: Enzyme-kinetic determination of inhibition constants, thrombin (Pefachrome tPA); type: biochemical; conditions: Tris-HCl buffer pH 8.0, Dixon, mean of at least two determinations
# Description: as §1
# [1] = cited from earlier work
# trypsin = conditions: background, aprotinin; read-out: K for trypsin; cited from earlier work
# [2] = Tris-HCl buffer pH 8.0, Dixon, mean of at least two determinations, read-out: Ki Plasmin
# Chain of plasma kallikrein (P03952 391-638 limits assumed): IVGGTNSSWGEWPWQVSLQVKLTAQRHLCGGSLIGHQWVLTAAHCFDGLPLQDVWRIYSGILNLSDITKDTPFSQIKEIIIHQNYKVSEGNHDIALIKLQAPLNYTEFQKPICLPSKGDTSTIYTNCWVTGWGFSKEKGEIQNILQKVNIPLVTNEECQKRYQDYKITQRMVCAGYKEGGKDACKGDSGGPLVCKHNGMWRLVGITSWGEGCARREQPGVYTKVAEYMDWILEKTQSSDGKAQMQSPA
# Chain of plasma kallikrein (P03952 20-390 partner limits assumed): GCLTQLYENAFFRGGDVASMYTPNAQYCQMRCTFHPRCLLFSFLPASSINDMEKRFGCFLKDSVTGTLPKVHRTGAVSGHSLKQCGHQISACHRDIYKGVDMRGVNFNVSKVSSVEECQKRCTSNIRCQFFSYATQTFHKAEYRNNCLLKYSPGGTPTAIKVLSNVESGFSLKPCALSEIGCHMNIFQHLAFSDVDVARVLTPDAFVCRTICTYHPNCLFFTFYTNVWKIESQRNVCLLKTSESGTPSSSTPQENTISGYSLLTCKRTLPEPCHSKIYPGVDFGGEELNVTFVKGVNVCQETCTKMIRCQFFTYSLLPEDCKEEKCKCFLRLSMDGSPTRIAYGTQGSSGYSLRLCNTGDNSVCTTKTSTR
# Chain of plasmin (P00747 581-810 limits assumed): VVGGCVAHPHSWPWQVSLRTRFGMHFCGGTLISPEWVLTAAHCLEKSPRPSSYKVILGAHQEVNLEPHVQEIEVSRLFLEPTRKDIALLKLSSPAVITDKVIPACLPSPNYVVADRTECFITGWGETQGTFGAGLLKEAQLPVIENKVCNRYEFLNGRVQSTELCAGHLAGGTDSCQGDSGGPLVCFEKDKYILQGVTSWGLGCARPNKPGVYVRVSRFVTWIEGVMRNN
# Chain of plasmin (P00747 97-580 partner limits assumed): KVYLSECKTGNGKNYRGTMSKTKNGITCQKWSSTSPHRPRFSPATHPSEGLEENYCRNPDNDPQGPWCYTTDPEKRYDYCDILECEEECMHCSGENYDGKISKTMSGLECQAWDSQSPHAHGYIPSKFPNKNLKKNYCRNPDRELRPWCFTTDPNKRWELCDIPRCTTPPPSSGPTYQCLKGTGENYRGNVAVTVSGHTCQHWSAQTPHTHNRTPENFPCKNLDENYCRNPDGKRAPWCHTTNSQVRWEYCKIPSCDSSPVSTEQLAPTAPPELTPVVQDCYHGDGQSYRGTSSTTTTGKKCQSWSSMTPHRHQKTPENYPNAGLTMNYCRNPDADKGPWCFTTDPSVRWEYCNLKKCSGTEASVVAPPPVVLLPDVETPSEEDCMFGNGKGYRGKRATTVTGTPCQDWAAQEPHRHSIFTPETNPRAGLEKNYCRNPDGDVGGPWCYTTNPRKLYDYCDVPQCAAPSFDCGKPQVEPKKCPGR
# Chain of Factor Xa (human) (P00742 235-488 limits assumed): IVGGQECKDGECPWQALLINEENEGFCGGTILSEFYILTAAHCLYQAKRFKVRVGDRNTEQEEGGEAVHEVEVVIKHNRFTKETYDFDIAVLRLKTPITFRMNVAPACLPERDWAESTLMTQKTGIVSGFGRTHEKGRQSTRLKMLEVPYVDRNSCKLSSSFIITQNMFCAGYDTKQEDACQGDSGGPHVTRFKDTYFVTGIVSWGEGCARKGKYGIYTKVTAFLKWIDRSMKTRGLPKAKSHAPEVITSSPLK
# Chain of Factor Xa (human) (P00742 41-179 partner limits assumed): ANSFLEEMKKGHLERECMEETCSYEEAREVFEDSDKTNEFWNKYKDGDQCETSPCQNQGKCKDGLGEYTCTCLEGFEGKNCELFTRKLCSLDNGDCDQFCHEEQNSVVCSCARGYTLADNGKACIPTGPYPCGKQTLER
Compound,Ki (Factor Xa (human)) [µM],Ki (plasma kallikrein) [µM],Ki (plasmin) [nM],Ki (Thrombin (bovine)) [µM],Ki (plasmin; [2]) [nM],risk of an anaphylactic shock ([1]; aprotinin applied for the first time) [%],risk of myocardial infarction and apoplectic stroke ([1]; compared to the control groups),number of cases of kidney damage requiring subsequent dialysis ([1]; comparison with ε-aminocaproic acid or tranexamic acid (Mangano et al.)),risk of an anaphylactic shock ([1]; repeated administration within 200 days),Ki (trypsin) [µM]
N=C(N)c1ccc(CNC(=O)[C@@H]2Cc3ccc(cc3)NC(=O)CCN3CCN(CCC(=O)Nc4ccc(cc4)C[C@@H](NS(=O)(=O)NC4CCCCC4)C(=O)N2)CC3)cc1 [Inhibitor 1],7.4,0.6,0.052,17,,,,,,
N=C(N)c1ccc(CNC(=O)[C@@H]2Cc3ccc(cc3)NC(=O)CCN3CCN(CCC(=O)Nc4ccc(cc4)C[C@@H](N)C(=O)N2)CC3)cc1 [Inhibitor 6],405,24.5,12.8,60.8,,,,,,
N=C(N)c1ccc(CNC(=O)[C@@H]2Cc3ccc(cc3)NC(=O)CCN3CCN(CCC(=O)Nc4ccc(cc4)C[C@@H](NC(=O)Cc4ccccc4)C(=O)N2)CC3)cc1 [Inhibitor 4],188,7.92,,41.8,8,,,,,
CN(C)S(=O)(=O)N[C@@H]1Cc2ccc(cc2)NC(=O)CN2CCN(CC2)CC(=O)Nc2ccc(cc2)C[C@@H](C(=O)NCc2ccc(C(=N)N)cc2)NC1=O [Inhibitor 14],134,12,5.9,4.96,,,,,,
CC1(C)C(=O)Nc2ccc(cc2)C[C@@H](C(=O)NCc2ccc(C(=N)N)cc2)NC(=O)[C@H](NS(=O)(=O)Cc2ccccc2)Cc2ccc(cc2)NC(=O)C(C)(C)N2CCN1CC2 [Inhibitor 7],1.45,0.077,,0.62,2.2,,,,,
NCc1ccc(CNC(=O)[C@@H]2Cc3ccc(cc3)NC(=O)CCN3CCN(CCC(=O)Nc4ccc(cc4)C[C@@H](NS(=O)(=O)Cc4ccccc4)C(=O)N2)CC3)cc1 [Inhibitor 3],78,6.38,1.24,141,,,,,,
aprotinin,,,,,,< 0.1,increased,doubling,4-5%,0.0001
N=C(N)c1ccc(CNC(=O)[C@@H]2Cc3ccc(cc3)NC(=O)CN3CCN(CC3)CC(=O)Nc3ccc(cc3)C[C@@H](NS(=O)(=O)NC3CCCCC3)C(=O)N2)cc1 [Inhibitor 2],7.9,0.319,0.32,16,,,,,,
N=C(N)NCCCCNC(=O)[C@@H]1Cc2ccc(cc2)NC(=O)CCN2CCN(CCC(=O)Nc3ccc(cc3)C[C@@H](NS(=O)(=O)NC3CCCCC3)C(=O)N1)CC2 [Inhibitor 13],,,,,3.5,,,,,
N=C(N)c1ccc(CNC(=O)[C@@H]2Cc3ccc(cc3)NC(=O)CN3CCN(CC3)CC(=O)Nc3ccc(cc3)C[C@@H](NC(=O)OCc3ccccc3)C(=O)N2)cc1 [Inhibitor 11],104,4.64,,46.9,5.4,,,,,
N=C(N)c1ccc(CNC(=O)[C@@H]2Cc3ccc(cc3)NC(=O)CCN3CCN(CCC(=O)Nc4ccc(cc4)C[C@@H](NC(=O)OCc4ccccc4)C(=O)N2)CC3)cc1 [Inhibitor 5],47.4,6.95,,44,0.77,,,,,
